Measured values: article PMC6588697, “Lugdunin amplifies innate immune responses in the skin in synergy with host- and microbiota-derived factors” (Nature Communications, 2019)
“And” between values parts separate entries of the source, which are not always exact repeats. Equal values may be shown once.

Columns and labels:
[1] = tested on: PBMCs; assay: CXCL8 expression in PBMCs (qRT-PCR); type: cell-based, human; details: 5 h, two technical replicates
Description: (§1) Quantitative reverse transcription-polymerase chain reaction (qRT-PCR) was performed in 10 µL reaction volume with SYBR^TM Green PCR Master Mix (Thermo Fisher) according to the manufacturer’s instructions using a LightCycler 96 (Roche Life Science). The initial denaturation step was at 95 °C for 5 min, followed by 40 cycles with 10 s each for the denaturation step at 95 °C, the annealing at individual temperature, and the elongation at 72 °C. Primer sequences and respective annealing temperatures are listed in Supplementary Table 1.
Human PBMCs were isolated from the peripheral blood of healthy donors upon obtaining informed consent by Ficoll-Histopaque (Biochrom) gradient centrifugation. Cells were washed once in PBS and adjusted to a cell number of 1 × 10^6 mL^−1 in RPMI-1640 medium (Gibco/Life Technologies) containing 10% FBS (Biochrom/Merck Millipore). […]
31 g+h+i: HNEpCs (b), HTEpCs (c) or PBMCs (d) were treated with increasing
32 concentrations of lugdunin (grey bars) or 100 ng/mL Pam2Cys or Pam3Cys (white
33 bars) as positive controls for 5 hours and subsequently expression of CXCL8 was
34 analyzed and normalized to actin. Black bar: medium control. Shown is one
35 representative experiment of three independent experiments with two technical
36 replicates +/-s.e.m. Significant differences to control treatments were analyzed by
37 ordinary one-way ANOVA followed by Dunnett’s multiple comparisons test (*P<0.05; […]

[2] = tested on: HEK293-TLR2 cells; assay: CXCL8 expression in HEK-TLR2 cells (qRT-PCR); type: cell-based, human; details: 5 h, two technical replicates, Fig 2b
Description: Fig. 2 Induction of chemokine (C-X-C motif) ligand 8/macrophage inflammatory protein-2 (CXCL8/MIP-2) by lugdunin is TLR2/MyD88-dependent. a HEK-control or HEK-TLR2 cells were treated with 2 μM lugdunin for 5 h and subsequently the CXCL8 concentration in the supernatant was analyzed by LEGENDplex^TM (BioLegend). Shown is one representative experiment of three independent experiments with two technical replicates ± s.e.m. b HEK-control or HEK-TLR2 cells were treated with increasing concentrations of lugdunin for 5 h and subsequently expression of CXCL8 was analyzed and normalized to actin. Shown is one representative experiment of three independent experiments with two technical replicates ± s.e.m. c Schematic overview of the mouse experiments: 6–8-week-old female C5BL/6 WT, MyD88-knockout (ko), or 5xTLR-ko mice were epicutaneously treated with 1.5 µg lugdunin or phosphate-buffered saline (PBS) as a control. After 24 h, mice were euthanized, 4 mm skin punches were taken, and further cultured in vitro for 10 h followed by cytokine analysis of the culture supernatant by LEGENDplex^TM (BioLegend). d, e Shown are the mean concentrations of IL-1α (d) or MIP-2 (e) in the skin culture supernatant of two skin punches from four mice each ± s.e.m. Significant differences to control treatments were analyzed by an unpaired two-tailed t test (*P < 0.05; **P < 0.01; ***P < 0.001). f Representative MIP-2-stained paraffin-embedded mouse skin sections. Scale bar, 100 µM. Source data are provided as a Source Data file
as §1, with “1. […]” for “1.”

Lugdunin
CXCL8 fold induction ([1]; lugdunin 0.5 µM, sheet Supp Fig 1h): 0.8179 and 0.8236 | CXCL8 fold induction ([1]; lugdunin 1 µM): 1.223 and 1.275 | CXCL8 fold induction ([1]; lugdunin 2 µM): 2.085 and 1.84 | CXCL8 fold induction ([1]; lugdunin 3 µM): 2.121 and 2.305 | CXCL8 fold induction ([1]; lugdunin 5 µM): 3.021 and 3.221 | CXCL8 fold induction ([1]; lugdunin 10 µM): 3.494 and 3.593 | CXCL8 expression normalized to actin ([2]; HEK-TLR2, lugdunin 0.5 µM, medium = 1): 2.676 and 2.042 | CXCL8 expression normalized to actin ([2]; HEK-TLR2, lugdunin 1 µM): 1.404 and 1.257 | CXCL8 expression normalized to actin ([2]; HEK-TLR2, lugdunin 2 µM): 3.918 and 4.112 | CXCL8 expression normalized to actin ([2]; HEK-TLR2, lugdunin 3 µM): 4.408 and 3.864 | CXCL8 expression normalized to actin ([2]; HEK-TLR2, lugdunin 5 µM): 6.364 and 6.916 | CXCL8 expression normalized to actin ([2]; HEK-TLR2, lugdunin 10 µM): 9.415 and 10.232
